In patent EP4389113A1, “DOSAGE FORM FOR INTRAMEDULLARY INJECTION OR IMPLANTATION COMPRISING ELTROMBOPAG FOR USE IN THE IMPROVEMENT OF HEMATOPOIETIC STEM CELL TRANSPLANTATION” (PK MED, priority 2022, dated 2024):

What was measured:
[1] = biological target: T1, human MMP-8 (Homo sapiens, UniProt P22894); test: Proteolysis of SDF-1α by activated MMP-8, multiplex western blot; assay type: biochemical
T1 construct: purchased R&D systems 908-MP
Experimental: (§1) • Particle size was determined using a Malvern Mastersizer MS3000 laser diffraction particle size analyzer. A 1 mg/ml microparticles in deionized water preparation was introduced in the apparatus and the measurement run 3 times. The results shown in the examples are the mean of the three measures. • Eltrombopag microparticle drug load was determined by first solubilizing 10 mg of drug-loaded polymeric microparticles in 2,5 mL of an acetonitrile/water mixture at a 80/20 v/v ratio. The medium was then centrifuged for 15 min at 4000 rpm and the supernatant filtrated through a 0.45 µm PTFE filter (Acrodisc PTFE). A 2 ml aliquot of the filtrated supernatant was then analyzed by HPLC to determine the microparticle drug load. HPLC analysis was conducted using a silica-based reversed-phase C18 column [Kinetex C18, 100mm × 4,6 mm, 2,6 µm particle size] and a mobile phase consisting in [acetonitrile/ammonium formate (10 mM) 80/20 v/v adjusted at pH 2]. The flow rate was set at 0,5 mL/min, the injection volume was 10µL and the UV detection was set at 244 nm. • For incubation of Eltrombopag olamine with activated human proteases, proMMP-8 and pro MMP-9 proteases were first activated. Human proMMP-8 (Cat. no. 908-MP, R&D systems) at 100 µg/ml in buffer containing 50 mM Tris, 150 mM NaCl (sodium chloride), 5 mM CaCl2 (calcium chloride) and 0.01% tween 20 (pH 7.6) was activated by incubation with 1 mM p-aminophenylmercuric acetate for 1h at 37°C. Human proMMP-9 was expressed in Sf9 cells, purified by gelatin-sepharose chromatography and activated by incubation with the catalytic domain of MMP-3 (cat. No. 444217, Merck Millipore). Specifically, human proMMP-9 at 920 µg/ml in the same described buffer as for MMP-8 activation was incubated with the catalytic domain of MMP-3 at a molar ratio of 1/100 (MMP-3/MMP-9) for 2h at 37°C in. The final concentration of MMP-9 was 10 µM and the final concentration of MMP-3 was 0.1 µM. Concentrated eltrombopag olamine solution was prepared by solubilization in water at a concentration of 10 mg/ml for 24h on rotor at 4°C, and further diluted at the final concentration needed. Activated MMP-8 or MMP-9 were then incubated at a final concentration of 625 nM in Eltrombopag olamine at different concentrations (50 µM, 10 µM, 1 µM and 0.1 µM) in a final volume of 3µl for 30 minutes at 37°C in calcium-free buffer containing 50 mM Tris, 150 mM NaCl, 0.01% tween 20 (pH 7.6) using low protein-binding tubes (Protein LoBind tubes, Eppendorf). • Incubation of human SDF-1α (Cat. no. 300-28A, Peprotech) in the solution containing the activated human proteases and eltrombopag olamine was done at a MMP/SDF-1 molar ratio of 1/5 in the same calcium-free buffer and tubes described, with a final SDF-1 α concentration of 3.125 µM and a final volume of 4µl at 37°C for 2h. A negative control without eltrombopag olamine was similarly prepared. • SDF-1 proteolysis was analyzed by multiplex western blot. All samples were diluted in reducing loading buffer (10% β-mercaptoethanol, 0.1% bromophenol blue, 4% SDS (sodium dodecyl sulfate), 20% glycerol, 125 mM Tris, pH 6.8) and boiled at 90°C for 20 min. Next, the equivalent of 100 ng SDF-1 was loaded onto Novex 16% tricine gels (Cat. no. EC6695BOX, Invitrogen). The Chameleon Duo Pre-stained Protein Ladder was used as a molecular weight using 6ul in one well. Proteins in the samples were separated by denaturing SDS-PAGE using tricine running buffer (100 mM Tris, 100 mM Tricine, 0.1% SDS, pH 8.3) under a constant voltage of 120V (±60 min). After electrophoresis, proteins were transferred to polyvinylidene difluoride (PVDF) membranes with the Trans-Blot Turbo Transfer System (Biorad) with Trans-Blot Turbo RTA Mini 0.45 µm low fluorescence PVDF Transfer Kit (Cat. No. 1704274, Biorad). […]

[2] = biological target: T2, human MMP-9 (Homo sapiens, UniProt P14780); test: Proteolysis of SDF-1α by activated MMP-9, multiplex western blot; assay type: biochemical
T2 construct: made in house; host or cells: Sf9 cells
T2 sequence (P14780 107-707 limits assumed): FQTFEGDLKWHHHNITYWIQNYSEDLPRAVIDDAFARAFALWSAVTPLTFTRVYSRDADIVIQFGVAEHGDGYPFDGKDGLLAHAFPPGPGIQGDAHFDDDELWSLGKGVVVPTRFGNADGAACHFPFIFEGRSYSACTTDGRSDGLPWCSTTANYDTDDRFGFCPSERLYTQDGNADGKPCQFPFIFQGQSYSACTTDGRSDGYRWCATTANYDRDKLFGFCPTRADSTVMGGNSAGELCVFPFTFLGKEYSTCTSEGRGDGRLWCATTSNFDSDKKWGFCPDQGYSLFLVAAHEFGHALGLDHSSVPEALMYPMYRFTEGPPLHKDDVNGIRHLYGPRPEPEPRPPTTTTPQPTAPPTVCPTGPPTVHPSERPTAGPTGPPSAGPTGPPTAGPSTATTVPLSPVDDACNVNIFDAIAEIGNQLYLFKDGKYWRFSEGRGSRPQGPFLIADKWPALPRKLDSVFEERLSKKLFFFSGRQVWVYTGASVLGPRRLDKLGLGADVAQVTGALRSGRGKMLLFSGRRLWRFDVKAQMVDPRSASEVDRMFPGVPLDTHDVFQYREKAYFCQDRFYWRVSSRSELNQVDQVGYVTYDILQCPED
Experimental: as §1

[3] = after oral administration of a 50 mg tablet; cited from earlier work
[4] = SDF-1 plus MMP-8 plus 0.1 µM eltrombopag olamine
[5] = SDF-1 plus MMP-8 plus 1 µM eltrombopag olamine
[6] = SDF-1 plus MMP-8 plus 10 µM eltrombopag olamine
[7] = SDF-1 plus MMP-8 plus 50 µM eltrombopag olamine
[8] = SDF-1 plus MMP-9 plus 0.1 µM eltrombopag olamine
[9] = SDF-1 plus MMP-9 plus 1 µM eltrombopag olamine
[10] = SDF-1 plus MMP-9 plus 10 µM eltrombopag olamine
[11] = SDF-1 plus MMP-9 plus 50 µM eltrombopag olamine

T1 sequence (P22894 101-467): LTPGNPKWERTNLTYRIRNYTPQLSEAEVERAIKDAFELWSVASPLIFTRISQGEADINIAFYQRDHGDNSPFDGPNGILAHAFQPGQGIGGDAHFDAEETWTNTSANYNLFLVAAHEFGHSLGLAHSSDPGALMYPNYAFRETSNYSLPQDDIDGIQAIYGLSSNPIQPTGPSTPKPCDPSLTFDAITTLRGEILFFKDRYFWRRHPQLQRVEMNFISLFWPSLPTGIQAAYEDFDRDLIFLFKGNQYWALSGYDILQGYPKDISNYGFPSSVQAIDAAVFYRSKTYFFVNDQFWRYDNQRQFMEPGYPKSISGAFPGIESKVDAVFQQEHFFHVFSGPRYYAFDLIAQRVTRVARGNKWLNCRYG

CC1=NN(c2ccc(C)c(C)c2)C(=O)/C1=N\Nc1cccc(-c2cccc(C(=O)O)c2)c1O.NCCO.NCCO [eltrombopag olamine, 3'-{(2Z)-2-[1-(3,4-dimethylphenyl)-3-methyl-5-oxo-1,5-dihydro-4H-pyrazol-4-ylidene]hydrazino}-2'-hydroxy-3-biphenylcarboxylic acid - 2-aminoethanol (1:2)]
intact SDF-1α retrieved ([1]; MMP-8 in the presence of 50 µM eltrombopag olamine, only 3.5% in its absence): 30%
N-term intact SDF-1α (RFUs) [1, 4]: 0,0006 RFUs
Ratio of intact/total SDF-1α [1, 4]: 0,0001
Total SDF-1α (RFUs) [1, 4]: 7,501 RFUs
N-term intact SDF-1α (RFUs) [1, 5]: 0,0001 RFUs
Ratio of intact/total SDF-1α [1, 5]: 0,0000
Total SDF-1α (RFUs) [1, 5]: 7,986 RFUs
N-term intact SDF-1α (RFUs) [1, 6]: 0,0001 RFUs
Ratio of intact/total SDF-1α [1, 6]: 0,0000
Total SDF-1α (RFUs) [1, 6]: 6,989 RFUs
Ratio of intact/total SDF-1α [1, 7]: 0,0002
Total SDF-1α (RFUs) [1, 7]: 10,430 RFUs
N-term intact SDF-1α (RFUs) ([1]; SDF-1 plus MMP-8 plus 50 µM eltrombopag olamine, MMP/SDF-1α molar ratio 1/5, 37°C, 2h): 0,0020 RFUs
intact SDF-1α retrieved ([2]; MMP-9 in the presence of 50 µM eltrombopag olamine, only 20% in its absence): 72%
N-term intact SDF-1α (RFUs) [2, 8]: 0,013 RFUs
Ratio of intact/total SDF-1α [2, 8]: 0,003
Total SDF-1α (RFUs) [2, 8]: 3,951 RFUs
N-term intact SDF-1α (RFUs) [2, 9]: 0,012 RFUs
Ratio of intact/total SDF-1α [2, 9]: 0,003
Total SDF-1α (RFUs) [2, 9]: 3,644 RFUs
N-term intact SDF-1α (RFUs) [2, 10]: 0,010 RFUs
Ratio of intact/total SDF-1α [2, 10]: 0,002
Total SDF-1α (RFUs) [2, 10]: 4,142 RFUs
Ratio of intact/total SDF-1α [2, 11]: 0,007
Total SDF-1α (RFUs) [2, 11]: 4,687 RFUs
N-term intact SDF-1α (RFUs) ([2]; SDF-1 plus MMP-9 plus 50 µM eltrombopag olamine, MMP/SDF-1α molar ratio 1/5, 37°C, 2h): 0,033 RFUs

CC1=NN(c2ccc(C)c(C)c2)C(=O)/C1=N\Nc1cccc(-c2cccc(C(=O)O)c2)c1O [EPAG, 3'-[(2Z)-[1-(3,4-dimethylphenyl)-1,5-dihydro-3-methyl-5-oxo-4H-pyrazol-4-ylidene]hydrazino]-2'-hydroxy-[1,1'-biphenyl]-3-carboxylic acid]
maximum plasmatic concentration [3]: 14 µM
